Measurements from ChEMBL document CHEMBL1201862, “PubChem BioAssay data set” (2004).
Active and inactive are the calls of the source.

Columns and labels:
[1] = biological target: T1, Neuropeptide Y receptor type 1 (Homo sapiens, UniProt P25929); test: Fluorescence-based counterscreen for agonists of NPY-Y2: cell-based high-throughput dose response assay for agonists of NPY-Y1.; type: functional
T1 sequence (P25929 whole entry): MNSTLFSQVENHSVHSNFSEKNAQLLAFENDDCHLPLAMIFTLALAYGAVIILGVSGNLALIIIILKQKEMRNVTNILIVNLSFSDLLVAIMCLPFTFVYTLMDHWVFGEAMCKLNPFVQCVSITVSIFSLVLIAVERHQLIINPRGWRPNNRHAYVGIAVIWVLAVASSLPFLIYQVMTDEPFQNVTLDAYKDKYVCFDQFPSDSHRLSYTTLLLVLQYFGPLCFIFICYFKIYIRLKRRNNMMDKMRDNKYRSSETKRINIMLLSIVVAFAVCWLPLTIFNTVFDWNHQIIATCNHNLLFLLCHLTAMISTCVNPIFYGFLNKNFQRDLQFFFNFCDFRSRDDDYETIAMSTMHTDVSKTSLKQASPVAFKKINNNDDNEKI

[2] = biological target: T2, Neuropeptide Y receptor type 2 (Homo sapiens, UniProt P49146); test: Fluorescence-based cell-based high-throughput dose response assay for agonists of NPY-Y2. [Related pubchem assays: 1703 (Screening assay (CNGC inhibitors).), 1359 (Screening assay (NPY-Y2 potentiators or agonists).), 1304 (Screening assay (NPY-Y1 potentiators or agonists).), 1710 (Screening assay (NPY-Y2 agonists).), 1791 (Summary AID.)]; type: functional
T2 sequence (P49146 whole entry): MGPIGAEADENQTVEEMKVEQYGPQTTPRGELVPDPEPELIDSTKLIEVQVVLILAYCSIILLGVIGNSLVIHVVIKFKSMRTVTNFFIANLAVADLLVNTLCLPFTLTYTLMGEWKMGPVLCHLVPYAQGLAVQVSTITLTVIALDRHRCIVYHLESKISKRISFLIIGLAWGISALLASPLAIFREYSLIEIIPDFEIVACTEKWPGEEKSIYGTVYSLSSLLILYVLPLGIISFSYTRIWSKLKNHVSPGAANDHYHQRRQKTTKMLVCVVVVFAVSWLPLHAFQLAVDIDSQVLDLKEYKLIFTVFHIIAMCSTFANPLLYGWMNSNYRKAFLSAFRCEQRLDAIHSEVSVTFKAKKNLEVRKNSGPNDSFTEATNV

HEK293 = test: Fluorescence-based counterscreen for potentiators or agonists of NPY-Y2: cell-based high-throughput dose response assay to identify inhibitors of cyclic nucleotide gated ion channel (CNGC) activity. In this assay, the parental HEK293 cell line transfected with a cyclic-nucleotide gated ion channel (CNGC)-based cAMP sensor is used to measure inhibition of isoproterenol-induced CNGC activity by test compound.; type: functional; conditions: Homo sapiens;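 note: stimulus is 1 µM isoproterenol at EC100 plus PDE inhibitor Ro 20-1724 at 25 µM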
[3] = HEp-2 cell cytotoxicity, dose response, cytotoxicity control for RSV inhibitor project, HTS (AID 2410); type: functional; conditions: human respiratory syncytial virus
[4] = Luminescence Cell-Based Dose Confirmation HTS to Identify Activators of 5'UTR Stem-Loop Driven Alpha-Synuclein mRNA Translation in H4 Neuroglioblastoma Cells. [Related pubchem assays: 1829 (Project Summary), 1814 (Primary HTS)]; type: functional
H4 = test: Luminescence Cell-Based Dose Response HTS to Identify Activators of 5'UTR Stem-Loop Driven Prion Protein mRNA Translation in H4 Neuroglioblastoma Cells. [Related pubchem assays: 1829 (Project Summary), 1814 (Primary HTS)]; type: functional; conditions: Homo sapiens
[5] = Luminescence Cell-Based Dose Response HTS to Identify Activators of Luciferase Translation or Activity in H4 […] Cells. [Related pubchem assays: 1829 (Project Summary), 1814 (Primary HTS)]; type: functional
[6] = biological target: Serine/threonine-protein phosphatase PP1-alpha catalytic subunit (Homo sapiens, UniProt P62136); test: PP1 phosphatase inhibitors, dose response, biochemical, fluorescence (AID 2403);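 note: phosphatase turnover of OMFP into fluorescent 3-O-methylfluorescein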
Sequence of Serine/threonine-protein phosphatase PP1-alpha catalytic subunit (P62136 whole entry): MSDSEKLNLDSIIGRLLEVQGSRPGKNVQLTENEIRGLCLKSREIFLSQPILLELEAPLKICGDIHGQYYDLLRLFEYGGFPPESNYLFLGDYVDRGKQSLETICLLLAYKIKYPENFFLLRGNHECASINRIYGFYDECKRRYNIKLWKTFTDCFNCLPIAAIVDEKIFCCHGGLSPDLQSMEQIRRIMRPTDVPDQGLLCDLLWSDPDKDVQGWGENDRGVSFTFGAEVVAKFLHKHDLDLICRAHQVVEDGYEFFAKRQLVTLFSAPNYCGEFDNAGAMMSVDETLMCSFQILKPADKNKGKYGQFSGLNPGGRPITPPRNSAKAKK

[7] = biological target: Serine/threonine-protein phosphatase (Homo sapiens, UniProt Q9BPW0); test: Counterscreen for inhibitors of PP1: fluorescence-based biochemical high throughput dose response assay to identify inhibitors of Protein Phosphatase 5 (PP5). [Related pubchem assays: 2034 (Summary (PP5 inhibitors)), 1987 (PP5 inhibitors in singlate), 2235 (PP1 inhibitors in singlate)]
Sequence of Serine/threonine-protein phosphatase (Q9BPW0 whole entry): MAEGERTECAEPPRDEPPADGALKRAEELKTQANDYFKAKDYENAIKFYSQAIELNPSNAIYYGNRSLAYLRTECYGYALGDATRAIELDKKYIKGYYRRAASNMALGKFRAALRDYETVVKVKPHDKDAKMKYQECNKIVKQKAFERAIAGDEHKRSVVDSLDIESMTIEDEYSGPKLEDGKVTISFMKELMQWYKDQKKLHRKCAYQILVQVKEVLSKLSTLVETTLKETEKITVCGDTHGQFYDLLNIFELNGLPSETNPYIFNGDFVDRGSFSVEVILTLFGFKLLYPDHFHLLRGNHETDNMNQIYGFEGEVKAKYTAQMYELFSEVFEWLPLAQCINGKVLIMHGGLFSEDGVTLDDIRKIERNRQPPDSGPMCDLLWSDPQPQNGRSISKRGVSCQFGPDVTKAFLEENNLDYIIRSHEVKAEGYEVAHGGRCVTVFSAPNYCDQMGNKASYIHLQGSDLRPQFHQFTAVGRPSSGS

[8] = biological target: T3, Apoptotic protease-activating factor 1 (Homo sapiens, UniProt O14727); type: functional
T3 sequence (O14727 whole entry): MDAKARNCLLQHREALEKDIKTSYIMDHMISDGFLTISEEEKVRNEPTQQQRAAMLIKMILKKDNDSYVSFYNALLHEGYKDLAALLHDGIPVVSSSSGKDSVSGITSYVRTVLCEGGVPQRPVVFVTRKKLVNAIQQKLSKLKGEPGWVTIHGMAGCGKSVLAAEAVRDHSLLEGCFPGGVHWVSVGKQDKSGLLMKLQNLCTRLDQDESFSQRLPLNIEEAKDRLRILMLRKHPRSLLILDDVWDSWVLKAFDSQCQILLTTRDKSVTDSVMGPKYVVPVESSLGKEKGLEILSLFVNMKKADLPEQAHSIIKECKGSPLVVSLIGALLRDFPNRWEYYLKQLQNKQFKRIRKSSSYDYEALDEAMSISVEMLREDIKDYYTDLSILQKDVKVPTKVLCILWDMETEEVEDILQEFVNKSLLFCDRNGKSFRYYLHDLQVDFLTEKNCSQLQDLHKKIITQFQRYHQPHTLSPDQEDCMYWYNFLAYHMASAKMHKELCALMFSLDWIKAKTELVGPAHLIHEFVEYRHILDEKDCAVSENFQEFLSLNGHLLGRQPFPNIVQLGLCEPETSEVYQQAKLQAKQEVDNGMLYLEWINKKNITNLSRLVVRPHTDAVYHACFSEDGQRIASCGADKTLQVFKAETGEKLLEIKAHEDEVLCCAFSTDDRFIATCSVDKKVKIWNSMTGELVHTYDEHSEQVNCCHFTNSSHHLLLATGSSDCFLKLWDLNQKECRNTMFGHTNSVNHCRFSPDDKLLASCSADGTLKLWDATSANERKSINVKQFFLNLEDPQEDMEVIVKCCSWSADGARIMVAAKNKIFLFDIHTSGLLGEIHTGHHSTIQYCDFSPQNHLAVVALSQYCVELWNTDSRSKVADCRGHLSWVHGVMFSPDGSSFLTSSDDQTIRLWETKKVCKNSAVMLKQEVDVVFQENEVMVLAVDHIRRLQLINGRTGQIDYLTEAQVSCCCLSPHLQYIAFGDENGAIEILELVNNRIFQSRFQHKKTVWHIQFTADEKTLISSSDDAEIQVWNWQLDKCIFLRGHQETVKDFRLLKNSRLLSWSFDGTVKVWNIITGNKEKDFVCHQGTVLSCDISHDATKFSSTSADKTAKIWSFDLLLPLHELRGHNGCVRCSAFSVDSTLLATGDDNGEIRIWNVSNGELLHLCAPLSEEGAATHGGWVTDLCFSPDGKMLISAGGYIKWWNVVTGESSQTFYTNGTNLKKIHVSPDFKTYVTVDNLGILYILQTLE

[9] = biological target: T4, Mannose-6-phosphate isomerase (Homo sapiens, UniProt P34949); test: human PMI inhibitors, high substrate, primary screen, biochemical, fluorescence intensity, high mannose 6-phosphate (AID 1220)
T4 sequence (P34949 whole entry): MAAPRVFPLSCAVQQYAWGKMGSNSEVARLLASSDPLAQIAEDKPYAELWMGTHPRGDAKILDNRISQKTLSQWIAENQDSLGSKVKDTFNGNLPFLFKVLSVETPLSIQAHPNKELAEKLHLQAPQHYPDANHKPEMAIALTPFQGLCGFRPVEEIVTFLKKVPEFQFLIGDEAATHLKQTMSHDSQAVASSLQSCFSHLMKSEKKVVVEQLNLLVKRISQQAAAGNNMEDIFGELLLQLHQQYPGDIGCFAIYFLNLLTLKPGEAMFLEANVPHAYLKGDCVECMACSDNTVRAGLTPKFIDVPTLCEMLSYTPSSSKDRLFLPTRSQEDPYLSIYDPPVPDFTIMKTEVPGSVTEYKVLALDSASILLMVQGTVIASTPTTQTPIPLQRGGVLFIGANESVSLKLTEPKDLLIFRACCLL

[10] = biological target: Mothers against decapentaplegic homolog 3 (Homo sapiens, UniProt P84022); test: Smad3 binding inhibitors, lysate ELISA, dose response, cell lysate, secondary confirmation, chemiluminescent ELISA, HEK293 lysate (AID 1058); type: functional
Sequence of Mothers against decapentaplegic homolog 3 (P84022 whole entry): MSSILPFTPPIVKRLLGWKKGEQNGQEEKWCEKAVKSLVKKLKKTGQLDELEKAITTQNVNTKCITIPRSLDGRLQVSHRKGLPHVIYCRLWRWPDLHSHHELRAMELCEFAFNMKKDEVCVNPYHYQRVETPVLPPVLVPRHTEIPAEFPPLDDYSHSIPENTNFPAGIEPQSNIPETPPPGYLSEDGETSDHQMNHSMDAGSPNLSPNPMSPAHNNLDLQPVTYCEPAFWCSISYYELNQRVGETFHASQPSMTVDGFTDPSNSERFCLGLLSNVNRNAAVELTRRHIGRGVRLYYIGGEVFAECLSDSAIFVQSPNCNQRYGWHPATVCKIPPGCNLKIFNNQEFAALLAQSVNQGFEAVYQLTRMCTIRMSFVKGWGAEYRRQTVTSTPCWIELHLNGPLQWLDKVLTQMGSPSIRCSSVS

Phospholipase A2 = Phospholipase A2 (Homo sapiens, UniProt P04054); type: functional;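 note: confirmatory dose-response counterscreen on phospholipase A2, testing hits that came from an ultra-high-throughput screen for ATG4B inhibitors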
Sequence of Phospholipase A2 (P04054 whole entry): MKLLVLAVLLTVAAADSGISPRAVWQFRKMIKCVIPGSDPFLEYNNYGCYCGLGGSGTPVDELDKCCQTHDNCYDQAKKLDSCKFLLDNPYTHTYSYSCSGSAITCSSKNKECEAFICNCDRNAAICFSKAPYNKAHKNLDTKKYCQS

Cysteine protease ATG4B = Cysteine protease ATG4B (Homo sapiens, UniProt Q9Y4P1); type: functional;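 note: Fluorescence-based dose-response confirmation assay measuring inhibition of ATG4B activity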
Sequence of Cysteine protease ATG4B (Q9Y4P1 whole entry): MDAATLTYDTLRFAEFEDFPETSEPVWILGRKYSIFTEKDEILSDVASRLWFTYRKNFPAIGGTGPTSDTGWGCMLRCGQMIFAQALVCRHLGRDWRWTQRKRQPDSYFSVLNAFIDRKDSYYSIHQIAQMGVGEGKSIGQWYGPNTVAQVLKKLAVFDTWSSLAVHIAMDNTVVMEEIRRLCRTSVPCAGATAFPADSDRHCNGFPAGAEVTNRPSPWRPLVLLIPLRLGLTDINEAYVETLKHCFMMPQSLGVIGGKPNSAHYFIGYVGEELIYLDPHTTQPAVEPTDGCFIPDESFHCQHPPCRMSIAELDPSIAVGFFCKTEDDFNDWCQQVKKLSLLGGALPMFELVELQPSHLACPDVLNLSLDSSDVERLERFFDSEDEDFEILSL

[11] = biological target: Intestinal-type alkaline phosphatase (Mus musculus, UniProt P24822); test: PubChem AID 488785; type: functional
Sequence of Intestinal-type alkaline phosphatase (Mus musculus, UniProt P24822) (P24822 whole entry): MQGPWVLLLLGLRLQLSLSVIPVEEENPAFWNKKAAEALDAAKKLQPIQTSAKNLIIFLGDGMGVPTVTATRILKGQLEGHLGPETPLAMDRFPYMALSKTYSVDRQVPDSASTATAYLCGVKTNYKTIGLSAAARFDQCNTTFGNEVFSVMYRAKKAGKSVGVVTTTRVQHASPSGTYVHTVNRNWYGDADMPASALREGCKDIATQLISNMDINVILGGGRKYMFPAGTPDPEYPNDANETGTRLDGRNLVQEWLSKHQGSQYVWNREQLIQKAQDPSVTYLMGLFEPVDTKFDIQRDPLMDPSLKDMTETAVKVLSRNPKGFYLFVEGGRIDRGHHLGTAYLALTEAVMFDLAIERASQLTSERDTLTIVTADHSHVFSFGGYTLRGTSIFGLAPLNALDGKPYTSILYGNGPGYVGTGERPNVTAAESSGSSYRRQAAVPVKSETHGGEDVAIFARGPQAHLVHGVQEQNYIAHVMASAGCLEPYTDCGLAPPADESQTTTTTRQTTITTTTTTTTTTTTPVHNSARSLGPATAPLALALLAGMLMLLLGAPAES

[12] = biological target: T5, Alkaline phosphatase, tissue-nonspecific isozyme (Homo sapiens, UniProt P05186); test: TNAP enzyme inhibition by screening hits, dose response, selectivity assay for mouse IAP inhibitor project, biochemical, human TNAP, uHTS hits (AID 488906); type: functional
T5 sequence (P05186 whole entry): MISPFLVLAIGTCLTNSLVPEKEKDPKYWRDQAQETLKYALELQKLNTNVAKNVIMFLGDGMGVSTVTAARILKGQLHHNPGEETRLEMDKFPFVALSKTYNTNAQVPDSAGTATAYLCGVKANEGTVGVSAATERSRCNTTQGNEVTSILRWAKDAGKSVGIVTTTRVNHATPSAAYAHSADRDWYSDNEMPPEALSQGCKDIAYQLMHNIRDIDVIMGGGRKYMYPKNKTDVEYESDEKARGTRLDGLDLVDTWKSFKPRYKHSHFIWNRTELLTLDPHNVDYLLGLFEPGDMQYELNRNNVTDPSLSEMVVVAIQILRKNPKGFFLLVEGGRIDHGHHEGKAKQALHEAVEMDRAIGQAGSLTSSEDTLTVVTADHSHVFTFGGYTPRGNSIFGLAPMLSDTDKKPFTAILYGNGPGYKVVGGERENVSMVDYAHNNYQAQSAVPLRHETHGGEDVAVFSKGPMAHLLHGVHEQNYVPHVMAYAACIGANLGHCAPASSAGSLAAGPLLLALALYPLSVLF

[13] = biological target: Intestinal-type alkaline phosphatase (Homo sapiens, UniProt P09923); test: inhibition of human intestinal alkaline phosphatase – biochemical, dose response (AID 488876); type: functional
Sequence of Intestinal-type alkaline phosphatase (Homo sapiens, UniProt P09923) (P09923 whole entry): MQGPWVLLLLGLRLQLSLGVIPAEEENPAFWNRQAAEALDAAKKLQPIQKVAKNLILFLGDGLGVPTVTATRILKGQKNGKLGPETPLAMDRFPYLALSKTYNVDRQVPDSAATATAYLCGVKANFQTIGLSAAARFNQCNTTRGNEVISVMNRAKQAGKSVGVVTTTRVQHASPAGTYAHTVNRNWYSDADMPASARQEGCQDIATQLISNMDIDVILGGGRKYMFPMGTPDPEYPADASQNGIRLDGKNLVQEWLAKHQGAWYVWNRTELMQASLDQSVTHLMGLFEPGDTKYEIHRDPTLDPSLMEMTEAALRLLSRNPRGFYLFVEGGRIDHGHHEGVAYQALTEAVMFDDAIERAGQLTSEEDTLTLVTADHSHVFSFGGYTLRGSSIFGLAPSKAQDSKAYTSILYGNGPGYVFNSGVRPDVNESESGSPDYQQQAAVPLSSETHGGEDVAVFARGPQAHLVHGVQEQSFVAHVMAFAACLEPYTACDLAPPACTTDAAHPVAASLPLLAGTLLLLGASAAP

[14] = biological target: T6, Short transient receptor potential channel 4 (Mus musculus, UniProt Q9QUQ5); test: mouse TRPC4 channel inhibitors, dose response, cell-based, HEK293 TRPC4/mu-opioid, Fluo-4 calcium (AID 434942); type: functional;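 note: potency of inhibitors blocking the TRPC4 calcium response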
T6 sequence (Q9QUQ5 whole entry): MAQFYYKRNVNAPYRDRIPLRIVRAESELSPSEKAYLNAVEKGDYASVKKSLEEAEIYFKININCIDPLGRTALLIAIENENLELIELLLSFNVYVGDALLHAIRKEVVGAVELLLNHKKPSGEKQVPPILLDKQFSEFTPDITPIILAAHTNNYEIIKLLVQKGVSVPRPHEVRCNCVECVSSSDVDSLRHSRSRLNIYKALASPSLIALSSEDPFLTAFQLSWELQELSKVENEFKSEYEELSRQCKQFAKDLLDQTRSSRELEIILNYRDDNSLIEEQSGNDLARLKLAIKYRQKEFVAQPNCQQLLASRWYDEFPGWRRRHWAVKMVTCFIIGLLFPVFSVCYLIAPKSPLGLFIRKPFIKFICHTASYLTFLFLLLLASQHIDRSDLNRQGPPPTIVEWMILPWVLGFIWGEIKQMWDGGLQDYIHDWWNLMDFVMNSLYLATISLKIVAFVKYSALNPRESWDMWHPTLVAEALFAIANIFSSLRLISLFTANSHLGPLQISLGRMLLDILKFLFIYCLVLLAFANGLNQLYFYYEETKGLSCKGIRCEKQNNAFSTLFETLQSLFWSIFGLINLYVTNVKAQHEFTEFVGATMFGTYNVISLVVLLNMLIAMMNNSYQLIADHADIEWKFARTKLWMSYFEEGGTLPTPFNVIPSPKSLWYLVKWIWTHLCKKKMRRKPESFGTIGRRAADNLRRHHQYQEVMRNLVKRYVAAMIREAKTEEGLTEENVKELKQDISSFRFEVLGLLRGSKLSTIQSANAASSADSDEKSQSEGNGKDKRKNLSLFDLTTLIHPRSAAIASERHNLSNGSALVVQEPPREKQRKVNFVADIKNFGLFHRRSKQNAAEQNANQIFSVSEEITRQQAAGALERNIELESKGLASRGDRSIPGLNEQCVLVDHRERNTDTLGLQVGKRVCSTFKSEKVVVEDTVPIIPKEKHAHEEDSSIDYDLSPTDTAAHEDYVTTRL

[15] = biological target: T5, Alkaline phosphatase, tissue-nonspecific isozyme
Streptococcus = test: Luminescence Microorganism-Based Dose Response Follow up to Identify Compounds Cytotoxic to Streptococcus. [Related pubchem assays: 1677 (Project Summary), 1915, 1914, 1902 (Retest at Dose), 1900 (Counter Screen), 1662 (Primary HTS)]; type: functional, organism-based

Compound: CC(=O)Nc1ccc(-c2cc3ccccc3o2)cc1
- EC50 [1]: 28.9 µM (not active)
- EC50 [2]: > 35.4 µM (not active)
- EC50 (HEK293): 27.4 µM (not active)
- CC50 [3]: 28.2 µM (active)

Compound: N#Cc1c(N2CCCC(O)C2)nc(N)c2c(N)nc3c(c12)CC(=O)N3C12CC3CC(CC(C3)C1)C2 (stereo not given)
- EC50 [4]: 12.6 µM (active)
- EC50 (H4): > 120 µM (not active)
- EC50 [5]: 9.64 µM (active)
- IC50 [6]: > 67 µM (not active)
- IC50 [7]: 29.5 µM (not active)
- IC50 [8]: 73 µM (active)
- IC50 [9]: > 50 µM (not active)

Compound: COc1ccc(C(c2cc3c(cc2O)OCO3)N2CCOCC2)c(OC)c1OC (stereo not given)
- IC50 [10]: 3.97 µM (not active)

Compound: Cc1ccc(CN2C3CCCC2CC(NC(=S)NCc2ccccc2)C3)cc1 (stereo not given)
- IC50 (Phospholipase A2): 7.96 µM (active)
- IC50 (Cysteine protease ATG4B): 15.6 µM (active)
- IC50 [11]: 5.23 µM (active)
- IC50 [12]: 91.3 µM (active)
- IC50 [13]: > 100 µM (inactive)
- EC50 [14]: 2.66 µM (active)
- EC50 [15]: 64.9 µM (not active)

Compound: O=C(c1ccc(Cl)cc1)n1c2ccccc2c2ccccc21
- EC50 (Streptococcus): > 500 µM (not active)
